Assays:
[1] = biological target: CD36-Aβ interaction (recombinant extracellular domain of human CD36, fibrillar hAβ 1-42) (Homo sapiens, UniProt P16671); assay: Colorimetric assay for inhibitors of Aβ-CD36 interaction; assay type: binding; conditions: for Activity on the CD36-Aβ interaction (screen): first evaluated at 100 μM
N9 microglia cells = conditions: cited from earlier work
CD36-Aβ interaction = conditions: cited from earlier work

Chain of CD36-Aβ interaction (recombinant extracellular domain of human CD36, fibrillar hAβ 1-42) (P16671 30-439): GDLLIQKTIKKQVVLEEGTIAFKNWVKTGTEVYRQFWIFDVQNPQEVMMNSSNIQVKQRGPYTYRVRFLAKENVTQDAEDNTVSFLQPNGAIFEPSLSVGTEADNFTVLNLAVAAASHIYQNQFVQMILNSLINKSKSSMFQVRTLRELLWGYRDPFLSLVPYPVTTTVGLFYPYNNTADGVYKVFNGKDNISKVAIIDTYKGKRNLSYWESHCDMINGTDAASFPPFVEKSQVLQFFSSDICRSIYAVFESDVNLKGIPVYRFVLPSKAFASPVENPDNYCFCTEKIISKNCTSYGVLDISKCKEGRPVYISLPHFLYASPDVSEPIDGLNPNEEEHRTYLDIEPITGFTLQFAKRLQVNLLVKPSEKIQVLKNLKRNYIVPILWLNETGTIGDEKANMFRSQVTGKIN

Structure (SMILES)	Activity on the CD36-Aβ interaction (screen) [1]	Effect on production of ROS induced by Aβ (N9 microglia cells)	Mode of inhibition of the interaction CD36-Aβ ([1]; from dose response profile)	Inhibition of CD36-Aβ interaction in a cell-based assay (CD36-Aβ interaction)
COc1ccc2cc(NC(=O)C3=NO[C@H]4[C@H](O)C=C[C@@H](O)[C@@]4(O)C3)c(=O)oc2c1OC [Compound 1, Trichodermamide A]	lacked activity			
COc1ccc2cc(NC(=O)C3=NO[C@H]4[C@H](O)C=C[C@@H](Cl)[C@@]4(O)C3)c(=O)oc2c1OC [Compound 2, Trichodermamide B]	lacked activity			
C[C@H]1[C@H](C)CC[C@]2(C(=O)O)CC[C@]3(C)C(=CC[C@@H]4[C@@]5(C)CC[C@H](O)C(C)(C)[C@@H]5CC[C@]43C)[C@H]12 [ursolic acid]		inhibits the production of ROS	competitive inhibitor	inhibitor of CD36-Aβ interaction

Source: PMC5737711 (ACS chemical neuroscience, 2017)
